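Five compound concentrations were applied to cells in 96-well plates for 48 hours; endpoints were derived by simple linear interpolation of the resulting dose-response curve. GI50 = concentration required for 50% inhibition of growth. TGI: total growth inhibition.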
Assays:
Experiment in all cases: DTP human tumour cell line panel, 48 h
[1] = system: OVCAR-5 ovarian
[2] = system: ACHN renal
[3] = system: SK-OV-3 ovarian
[4] = system: OVCAR-4 ovarian
[5] = system: RPMI-8226 leukemia
[6] = system: MCF7 breast
[7] = system: SNB-75 CNS
[8] = system: SF-539 CNS
[9] = system: HT29 colon
[10] = system: BT-549 breast

Row | Structure (SMILES) | TGI [1] [µM] | TGI [2] [µM] | TGI [3] [µM] | TGI [4] [µM] | TGI [5] [µM] | TGI [6] [µM] | TGI [7] [µM] | TGI [8] [µM] | TGI [9] [µM] | GI50 [1] [µM] | GI50 [2] [µM] | GI50 [3] [µM] | GI50 [4] [µM] | GI50 [8] [µM] | GI50 [9] [µM] | TGI [10] [µM] | GI50 [5] [µM] | GI50 [7] [µM]
1 | NCCCN1CCN(CCCNc2ccc3ncn4c5ccccc5c(=O)c2c34)CC1 | 19.3 | 13.9 | > 25 | 2.89 | > 25 | > 25 | 8.71 | 7.19 | 6.7 |  |  |  |  |  |  |  |  | 
2 | CCC[CH2][Ge]([CH2]CCC)([CH2]CCC)[O]C(=O)CCl | 26.2 | 18.4 | 20.6 | 21.5 |  |  |  | 6.85 | 11.5 | 12.3 | 2.71 | 5.2 | 2.76 | 1.65 | 0.628 |  |  | 
3 | CCCCC[C@@H]1OC(=O)[C@@]2(CC3c4ccccc4C2c2ccccc23)[C@H]1C(=O)OC | > 100 | > 100 | > 100 | > 100 | 54.3 | > 100 |  |  | > 100 |  |  |  |  |  |  | > 100 |  | 
4 | CC1Oc2c(c(O)cc3oc(=O)cc(-c4ccccc4)c23)C(=O)C1C (configuration not stated) |  | > 100 | > 100 |  | > 100 |  | > 100 | > 100 |  |  |  |  |  |  |  |  |  | 
5 | CC1=NN(C(=O)Cc2ccccc2)C(=O)/C1=C\c1cccc(O)c1 | > 100 | > 100 |  | > 100 | > 100 |  | > 100 | > 100 | > 100 |  |  |  |  |  |  |  |  | 
6 | N#Cc1nc(Cc2cccs2)oc1N | > 100 | > 100 | > 100 |  | > 100 | > 100 | > 100 |  | > 100 |  |  |  |  |  |  |  |  | 
7 | C=C1C(=O)OC2C1CC1OC2C(C)CCC/C(C)=C\CCC1(C)O (configuration not stated) | 124 |  | 119 | 56.6 | 24.3 | 57.4 | 51.5 | 48.7 | > 91.1 |  |  |  |  |  |  |  |  | 
8 | Oc1cc(Br)cc2cc(Br)cnc12 |  | 47.4 | > 100 | 9.59 | 30.2 | > 100 | > 100 | > 100 | > 100 |  |  |  |  |  |  | > 100 |  | 
9 | Cn1c(=O)n2n(c1=O)C1C(=CC2)C2C=CC1n1c(=O)n(C)c(=O)n12 (configuration not stated) | > 100 | > 100 | > 100 |  | > 100 |  | > 100 | > 100 | > 100 |  |  |  |  |  |  | > 100 |  | 
10 | Cc1ccc(Oc2cc(C)ccc2P(=O)(O)O)cc1 |  |  | > 100 |  | > 100 | > 100 | > 100 | > 100 |  |  |  |  |  |  |  | > 100 |  | 
11 | OCC(CO)CC1COc2ccccc2O1 (configuration not stated) | > 10 | > 10 | > 10 | > 10 | > 10 | > 10 | > 10 | > 10 | > 10 |  |  |  |  |  |  |  |  | 
12 | CC(C)(CN1CCCCC1)C(=O)CC(SCCS(=O)(=O)O)c1ccc(Cl)c(Cl)c1 (configuration not stated) | 14.6 | 9.03 | 45 | 9.38 | 7.03 | 15.3 |  | 6.23 | 10.9 |  |  |  |  |  |  | 13 |  | 
13 | C#Cc1ccccc1C(=O)OC | > 100 | > 100 | > 100 | > 100 | > 100 |  | > 100 | > 100 | > 100 |  |  |  |  |  |  |  |  | 
14 | Brc1ccc2[nH]cc(-c3nc(-c4c[nH]c5ccncc45)cs3)c2c1 | 3.21 | 3.16 | 3.03 |  | 5.23 |  | 2.53 | 3.11 |  | 1.79 | 1.77 | 1.65 |  | 1.72 |  |  | 2.48 | 1.22
15 | COc1ccc(CNc2cnc3cc(N)ccc3n2)cc1OC |  | > 100 |  | > 100 | > 100 |  | > 100 | > 100 | > 100 |  |  |  |  |  |  |  |  | 
16 | CC1(C)CN=C(c2ccc3ccccc3c2O)N1 | > 100 | > 100 |  | > 100 | > 100 | > 100 | > 100 | > 100 |  |  |  |  |  |  |  | > 100 |  | 
17 | COC(=O)[C@]12CCC(=O)N1[C@H](C(=O)O)Cc1c2[nH]c2ccccc12 | > 100 | > 100 | > 100 | > 100 |  | > 100 | > 100 | > 100 | > 100 |  |  |  |  |  |  | > 100 |  | 
18 | COc1ccc(N2C(=O)CSC2c2cc(OC)c(OC)c(OC)c2)cc1 (configuration not stated) | 73.9 | 40.9 | 71 | > 100 | > 100 | > 100 |  | > 100 | 57.1 |  |  |  |  |  |  | 52.1 |  | 
19 | O/N=C1/CCCCC1NO (configuration not stated) | > 100 | > 100 | > 100 | > 100 | > 100 | > 100 | > 100 | > 100 | > 100 |  |  |  |  |  |  |  |  | 
20 | Cc1ccc(NC(=O)NC23CC4CC(CC(F)(C4)C2)C3)cc1 | > 100 | > 100 | > 100 |  | 90.2 |  | 87.1 | > 100 | > 100 |  |  |  |  |  |  |  |  | 
21 | O=[N+]([O-])c1ccc(-c2nc3ccccc3o2)cc1 | > 100 | > 100 | > 100 | > 100 | > 100 | > 100 | > 100 | > 100 |  |  |  |  |  |  |  | > 100 |  | 
22 | O=C(NNc1ccc([N+](=O)[O-])cc1)C1OC(CO)C(O)C1O (configuration not stated) | > 100 | > 100 | > 100 | > 100 | > 100 |  | > 100 | > 100 | > 100 |  |  |  |  |  |  |  |  | 
23 | CC(=O)Oc1ccc(-c2c(OC(C)=O)c(OC(C)=O)c(-c3ccc(OC(C)=O)c(OC(C)=O)c3)c(OC(C)=O)c2OC(C)=O)cc1 | 25 | 30.8 | 69 | 31.8 | 35.4 | 50.6 | 31.9 | 34.3 | 36.1 |  |  |  |  |  |  |  |  | 
24 | CC(=O)Nc1oc(C)nc1C#N | > 100 | > 100 | > 100 | > 100 | > 100 | > 100 |  |  | > 100 |  |  |  |  |  |  |  |  | 
25 | O=C1C(=O)C(CCCO)(CCCO)CCCCCCCCC1(CCCO)CCCO | > 100 | > 100 | > 100 | > 100 | 32 | > 100 | > 100 | > 100 | > 100 |  |  |  |  |  |  |  |  | 

From PubChem BioAssay (NCI)
